Structures are written as SMILES.

The target in one experiment is T1, 5-HT2A receptor (Homo sapiens, UniProt P28223).
T1 construct: expressed in transfected cells
Description: [3H]-DOB binding assay (method b), affinity to the 5-HT2A receptor. The conditions noted are these: Ki from IC50 in nM; for Ki: read-out: Pki (Pki=-log10 Ki), 5-HT2A, Method b (converted). The protocol: (§1) The binding of compounds of formula I in accordance with the invention to selected serotonin […] was determined in vitro by standard methods. The preparations were investigated in accordance with the tests given hereinafter:
b) Affinity to the 5-HT2A receptor in accordance with the [3H]- DOB binding assay according to the method of T. Branchek et. al., Molecular Pharmacology 38, 604-609 (1990).
(§2) The Pki values (Pki=-log10 Ki) of the test substances are given. The Ki value is defined by the following formula: [formula] with the IC50 values being those concentrations of test compounds in nM at which 50% of the receptor-bonded ligands are displaced. [L] is the ligand concentration and the KD value is the dissocation constant of the ligand.

Experiment [1] concerns the target T2, 5-HT2C receptor (Rattus norvegicus, UniProt P08909).
T2 sequence (P08909 33-460): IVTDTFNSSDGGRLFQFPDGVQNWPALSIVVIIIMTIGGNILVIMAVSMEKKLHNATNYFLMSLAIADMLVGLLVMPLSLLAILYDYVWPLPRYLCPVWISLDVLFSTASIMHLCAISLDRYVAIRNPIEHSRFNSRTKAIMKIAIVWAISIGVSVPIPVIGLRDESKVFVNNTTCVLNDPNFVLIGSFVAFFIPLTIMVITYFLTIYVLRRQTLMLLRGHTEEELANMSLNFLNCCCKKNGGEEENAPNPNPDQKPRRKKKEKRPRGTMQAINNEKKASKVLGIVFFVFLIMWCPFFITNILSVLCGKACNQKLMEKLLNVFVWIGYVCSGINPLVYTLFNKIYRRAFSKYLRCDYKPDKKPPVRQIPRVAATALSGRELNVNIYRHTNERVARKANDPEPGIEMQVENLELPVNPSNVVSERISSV
Description: [3H]-5-HT binding assay (method a), affinity to the 5-HT2C receptor. Set-up: expressed in transfected cells. Particulars: Ki from IC50 in nM; for Ki: read-out: Pki (Pki=-log10 Ki), 5-HT2C, Method a (converted). The protocol: as §1
a) Affinity to the 5-HT2C receptor in accordance with the [3H]-5-HT binding assay according to the method of S.J. Peroutka et al., Brain Research 584, 191-196 (1992).
as §2

For experiment [2], the target named is T2, 5-HT2C receptor. Description: Penile erection (rats). It is filed as in vivo. Set-up: following the administration of the test substance to the animals; from tissue; host or cells: whole living rat (in vivo). The conditions noted are these: po, 0.75 h, p.o., erections within 45 minutes following administration, read-out: ID50 (mg/kg) (p.o.), penile erection. The protocol: It has been shown that penile erection is dependent on the stimulation of 5HT2C receptors (see Berendsen & Broekkamp, Eur. J. Pharm., 135, 179-184 (1987).
The number of penile erections was determined within 45 minutes following the administration of the test substance to the animals. The ED50 is the dosage which causes 50% of these erections.

T1 sequence (P28223 whole entry): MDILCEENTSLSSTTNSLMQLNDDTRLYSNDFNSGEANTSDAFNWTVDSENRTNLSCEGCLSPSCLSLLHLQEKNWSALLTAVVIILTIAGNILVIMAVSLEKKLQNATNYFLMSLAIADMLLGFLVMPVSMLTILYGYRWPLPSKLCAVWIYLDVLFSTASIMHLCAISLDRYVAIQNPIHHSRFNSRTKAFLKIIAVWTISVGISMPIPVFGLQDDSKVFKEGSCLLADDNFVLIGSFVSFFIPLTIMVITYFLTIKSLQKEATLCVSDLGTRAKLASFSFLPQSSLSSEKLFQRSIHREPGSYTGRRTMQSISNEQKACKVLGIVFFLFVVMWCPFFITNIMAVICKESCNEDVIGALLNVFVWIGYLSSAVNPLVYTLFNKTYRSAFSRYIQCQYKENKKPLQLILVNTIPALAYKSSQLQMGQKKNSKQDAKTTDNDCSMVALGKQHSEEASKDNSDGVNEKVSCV

On to `COCc1cccc2cc(C(=N)N)oc12` [CH2 --O-Me H H H H], for which the figures for the Ki at 5-HT2A receptor and on 5-HT2C receptor [1] were 3160 nM and 158 nM, respectively.
In the same order, the values of `CCCOc1cccc2cc(C(=N)N)oc12` [OPr H H H H] are over 10000 nM and 158 nM.
The like results for `CCOc1cccc2oc(C(=N)N)cc12` [Example 2, 4-Ethoxybenzofuran-2-carboxamidine] were, in that order, over 10000 nM and 158 nM.
As for `N=C(N)c1cc2ccc3c(c2o1)OCC3` [--O--CH2 --CH2 -- H H H], the inhibitory constant (Ki) on 5-HT2A receptor is 3160 nM; on 5-HT2C receptor [1] it was 398 nM.
Regarding `CC(C)OCc1cccc2cc(C(=N)N)oc12` [CH2 --O-iPr H H H H], the Ki at 5-HT2A receptor was 2000 nM; on 5-HT2C receptor [1], 398 nM. Besides, the ED50 on 5-HT2C receptor [2] is 5.1 mg/kg.
As to `N=C(N)c1cc2cccc(Cl)c2o1` [Cl H H H H], the inhibitory constant (Ki) is 3980 nM at 5-HT2A receptor and 158 nM at 5-HT2C receptor [1].
With `N=C(N)c1cc2c(F)cccc2o1` [Example 9, 4-Fluoro-benzofuran-2-carboxamidine], the Ki on 5-HT2A receptor is 2000 nM; at 5-HT2C receptor [1], 39.8 nM. Besides, at 5-HT2C receptor [2], the ED50 was 2.9 mg/kg.
On to `N=C(N)c1cc2cc(F)ccc2o1` [Example 5, 5-Fluorobenzofuran-2-carboxamidine], for which the values for the Ki on 5-HT2A receptor and on 5-HT2C receptor [1] were 2000 nM and 158 nM, respectively.
In the same order, the values of `N=C(N)c1cc2cc(Br)cc(Br)c2o1` [Br H Br H H] are 316 nM and 2000 nM.
The like results for `COc1ccc(C)c2cc(C(=N)N)oc12` [OMe H H Me H] were, in that order, 2510 nM and 100 nM.
For the molecule `N=C(N)c1cc2cccc(OC3CCCC3)c2o1` [O-Cyclo-pent H H H H], the inhibition constant Ki at 5-HT2A receptor is 251 nM; on 5-HT2C receptor [1] it was 501 nM.
The like results for `Cc1ccc2cc(C(=N)N)oc2c1` [H Me H H H] were, in that order, over 10000 nM and 1000 nM.
The like results for `CCOc1cccc2cc(C(N)=NO)oc12` [Example 14, 7-Ethoxybenzofuran-2-carboxamidoxime] were, in that order, over 10000 nM and 5500 nM.
In the same order, the values of `N=C(N)c1cc2cccc(OC3CCCCC3)c2o1` [O-Cyclo-hex H H H H] are 158 nM and 631 nM.
As for `N=C(N)c1cc2c(F)ccc(Br)c2o1` [Example 12, 7-Bromo-4-fluorobenzofuran-2-carboxamidine], the Ki on 5-HT2A receptor and on 5-HT2C receptor [1] was over 10000 nM in each case.
`CC(C)Oc1cccc2cc(C(=N)N)oc12` [Oi-Pr H H H H]: the values for the Ki at 5-HT2A receptor and at 5-HT2C receptor [1] were 1000 nM and 200 nM, respectively.
Regarding `NC(=NO)c1cc2ccccc2o1` [H H H H CH, benzofuran-2-carboxamidoxime], the Ki on 5-HT2A receptor and at 5-HT2C receptor [1] was over 10000 nM throughout. The ED50 at 5-HT2C receptor [2] was 2 mg/kg.
For the molecule `CSCc1cccc2cc(C(=N)N)oc12` [CH2 --S-Me H H H H], the results for the Ki at 5-HT2A receptor and on 5-HT2C receptor [1] were 1000 nM and 251 nM, respectively.
The like results for `COc1cc(-c2ccccc2)cc2cc(C(=N)N)oc12` [OMe H Ph H H] were, in that order, 158 nM and 1580 nM.
Consider `N=C(N)c1cc2cc(F)c(F)cc2o1` [Example 1, 5,6-Difluorobenzofuran-2-carboxamidine], for which the Ki at 5-HT2A receptor is 2000 nM; on 5-HT2C receptor [1], 158 nM. Further, the ED50 at 5-HT2C receptor [2] was 6 mg/kg.
Consider `N=C(N)c1cc2ccc(F)cc2o1` [Example 6, 6-Fluorobenzofuran-2-carboxamidine], for which the figures for the Ki on 5-HT2A receptor and on 5-HT2C receptor [1] were 2510 nM and 158 nM, respectively. Further, the ED50 on 5-HT2C receptor [2] came out at 3 mg/kg.
Turning to `CC(C)CCOc1cccc2cc(C(=N)N)oc12` [Oi-Pent H H H H], the Ki on 5-HT2A receptor was 158 nM; on 5-HT2C receptor [1], 501 nM.
For `NC(=NO)c1cc2ccc(F)cc2o1` [Example 16, 6-Fluorobenzofuran-2-carboxamidoxime], the Ki on 5-HT2A receptor was over 10000 nM; on 5-HT2C receptor [1] it was 4370 nM. In addition, at 5-HT2C receptor [2], the ED50 is 1.6 mg/kg.
As to `N=C(N)c1cc2cccc(Br)c2o1` [Br H H H H], the Ki at 5-HT2A receptor was 1580 nM; on 5-HT2C receptor [1] it was 126 nM.
Take `N=C(N)c1cc2cccc(O)c2o1` [CH H H H H]: the “Pki (Pki=-log10 Ki), 5-HT2A, Method b” value at 5-HT2A receptor is on record as under 5. The “Pki (Pki=-log10 Ki), 5-HT2C, Method a” value at 5-HT2C receptor [1] is 6.2.
As to `N=C(N)c1cc2cc(Cl)ccc2o1` [H H Cl H H], the Ki on 5-HT2A receptor and at 5-HT2C receptor [1] was 1580 nM throughout.
As for `COc1cccc2oc(C(=N)N)cc12` [H H H OMe H], the Ki at 5-HT2A receptor was 2000 nM; on 5-HT2C receptor [1], 158 nM.
As to `N=C(N)c1cc2cccc(F)c2o1` [F H H H H], the Ki on 5-HT2A receptor is 5010 nM; at 5-HT2C receptor [1] it was 794 nM.
As for `COc1ccc2oc(C(=N)N)cc2c1` [H H OMe H H], the results for the Ki on 5-HT2A receptor and at 5-HT2C receptor [1] were over 10000 nM and 2510 nM, respectively.
The like results for `CCOc1cccc2cc(C(=N)N)oc12` [Example 4, 7-Ethoxybenzofuran-2-carboxamidine] were, in that order, over 10000 nM and 50.1 nM.
The like results for `CC(C)COc1cccc2cc(C(=N)N)oc12` [Oi-Bu H H H H] were, in that order, 1000 nM and 2000 nM.
In the same order, the values of `COc1ccc2cc(C(=N)N)oc2c1` [H OMe H H H] are 6310 nM and 631 nM.
In the case of `NC(=NO)c1cc2c(F)cccc2o1` [Example 18, 4-Fluorobenzofuran-2-carboxamidoxime], the Ki is 2510 nM on 5-HT2A receptor and 79.4 nM on 5-HT2C receptor [1].
The like results for `COc1cccc2cc(C(=N)N)oc12` [Example 3, 7-Methoxybenzofuran-2-carboxamidine] were, in that order, over 10000 nM and 158 nM.
Regarding `NC(=NO)c1cc2cc(F)ccc2o1` [Example 15, 5-Fluorobenzofuran-2-carboxamidoxime], the Ki at 5-HT2A receptor was over 10000 nM; on 5-HT2C receptor [1] it was 4270 nM.
The like results for `CCOCc1cccc2cc(C(=N)N)oc12` [Example 7, 7-Ethoxymethylbenzofuran-2-carboxamidine] were, in that order, 2000 nM and 100 nM.
The like results for `N=C(N)c1cc2cccc(OCc3ccccc3)c2o1` [OBn H H H H] were, in that order, 126 nM and 63.1 nM.
Consider `N=C(N)c1cc2cc(Cl)cc(Br)c2o1` [Br H Cl H H], for which the Ki at 5-HT2A receptor was 316 nM; at 5-HT2C receptor [1] it was 5010 nM.
On to `CCCc1cccc2cc(C(=N)N)oc12` [n-Pr H H H H], for which the Ki is 1000 nM on 5-HT2A receptor and 79.4 nM on 5-HT2C receptor [1].
In the same order, the values of `CSc1cccc2cc(C(=N)N)oc12` [SMe H H H H] are 1000 nM and 79.4 nM.
The like results for `N=C(N)c1cc2cc(Cl)cc(Cl)c2o1` [Cl H Cl H H] were, in that order, 631 nM and 2510 nM.
In the same order, the values of `CC(C)c1cccc2cc(C(=N)N)oc12` [i-Prop H H H H] are 794 nM and 63.1 nM.
With `CCOCc1cccc2cc(C(N)=NO)oc12` [Example 17, 7-Ethoxymethylbenzofuran-2-carboxamidoxime], the Ki at 5-HT2A receptor and on 5-HT2C receptor [1] was over 10000 nM in each case.
Consider `Cc1cccc2cc(C(=N)N)oc12` [Me H H H H], for which the values for the Ki at 5-HT2A receptor and at 5-HT2C receptor [1] were 2510 nM and 398 nM, respectively.
In the same order, the values of `NC(=NO)c1cc2cc(F)c(F)cc2o1` [Example 13, 5,6-Difluorobenzofuran-2-carboxamidoxime] are over 10000 nM and over 10000 nM.
In the same order, the values of `COc1cc(Br)cc2cc(C(=N)N)oc12` [OMe H Br H H] are 2510 nM and 126 nM.
The like results for `N=C(N)c1cc2c(F)cc(F)cc2o1` [Example 10, 4.6-Difluoro-benzofuran-2-carboxamidine] were, in that order, 631 nM and 7.94 nM.
`CCCc1ccc(F)c2cc(C(=N)N)oc12` [Example 11]: the Ki was 501 nM on 5-HT2A receptor and 7.94 nM at 5-HT2C receptor [1].
The like results for `CCCc1c(F)ccc2cc(C(=N)N)oc12` [Example 8, 6-Fluoro-7-propylbenzofuran-2-carboxamidine] were, in that order, 158 nM and 20 nM.
For `N=C(N)c1cc2ccc(Cl)cc2o1` [H Cl H H H], the Ki at 5-HT2A receptor is 5010 nM; on 5-HT2C receptor [1], 1260 nM.
In the same order, the values of `N=C(N)c1cc2cccc(-c3ccccc3)c2o1` [Ph H H H H] are 158 nM and 251 nM.

As a reminder, the Ki is a measure of affinity in units of concentration, obtained from inhibition or displacement.

Source of the values: patent US5955495A, “Method of treating diseases of the CNS” (Hoffmann-La Roche Inc., priority 1997, dated 1999).
